Where two headings read alike, the source gives them in different places.
Legend:
[1] = tested on: T. cruzi (Y strain) trypomastigotes; test: Antitrypomastigote assay (resazurin viability); format: cell-based; conditions: Trypanosoma cruzi, LLC-MK2-derived trypomastigotes, 24 h incubation, up to 100 μM, read-out: IC50 (μM) ± SD trypomastigote
Procedure: Our attention next turned to an evaluation of the activity of the various natural product analogues against T. cruzi amastigotes (evaluated microscopically using an ex vivo intracellular model with mice macrophages)[20] and trypomastigotes (resazurin in vitro assay).[30] […] Macrophages were collected from the peritoneal cavity of BALB/c mice by washing them with RPMI-1640 medium supplemented with 10% fetal calf serum and were maintained at 37 °C in a 5% CO2 humidified incubator. Trypomastigotes of T. cruzi (Y strain) were maintained in Rhesus monkey kidney cells (LLC-MK2, ATCC CCL 7) and cultivated in RPMI-1640 medium supplemented with 2% fetal calf serum at 37 °C in a 5% CO2 humidified incubator. Murine conjunctive cells (NCTC clone 929, ATCC) were maintained in RPMI-1640 supplemented with 10% FBS at 37 °C in a 5% CO2 humidified incubator.[20] LLC-MK2-derived trypomastigotes were seeded (1 × 10^6 cells/well) in 96-well plates and incubated with the compounds serially diluted 2-fold (up to 100 μM) for 24 h in RPMI 1640 medium at 37 °C in a 5% CO2 humidified incubator. Subsequently, resazurin (0.011% in PBS) was added for 24 h to check the parasite viability.[30] The optical density was determined in the FilterMax F5 (Molecular Devices) at 570 nm. Benznidazole was used as the standard. IC50 and CC50 values were calculated using a sigmoid dose–response curve in GraphPad Prism 6.0 software (GraphPad Software, San Diego, CA, USA). The assays were repeated at least twice, and the samples were tested in duplicate.

T. cruzi amastigotes [2] = test: Antiamastigote assay (intracellular, infected peritoneal macrophages, infection index by microscopy); format: cell-based, Trypanosoma cruzi; conditions: for IC50: Trypanosoma cruzi, Peritoneal macrophage, in Mus musculus, intracellular amastigotes in BALB/c peritoneal macrophages, 48 h, 30–0.23 μM, read-out: IC50 (μM) ± SD amastigote
Procedure: Our attention next turned to an evaluation of the activity of the various natural product analogues against T. cruzi amastigotes (evaluated microscopically using an ex vivo intracellular model with mice macrophages)[20] and trypomastigotes (resazurin in vitro assay).[30] […] Macrophages were collected from the peritoneal cavity of BALB/c mice by washing them with RPMI-1640 medium supplemented with 10% fetal calf serum and were maintained at 37 °C in a 5% CO2 humidified incubator. Trypomastigotes of T. cruzi (Y strain) were maintained in Rhesus monkey kidney cells (LLC-MK2, ATCC CCL 7) and cultivated in RPMI-1640 medium supplemented with 2% fetal calf serum at 37 °C in a 5% CO2 humidified incubator. Murine conjunctive cells (NCTC clone 929, ATCC) were maintained in RPMI-1640 supplemented with 10% FBS at 37 °C in a 5% CO2 humidified incubator.[20] Peritoneal macrophages (1 × 10^5 cells/well), collected from the peritoneal cavity of the BALB/c mice, were seeded in 16-well chamber slides (NUNC, Thermo Fisher Scientific) and infected with trypomastigotes (10:1, parasite/macrophage ratio). After 2 h, the compounds (in concentrations of 30–0.23 μM) were incubated with infected macrophages for 48 h at 37 °C in a 5% CO2 humidified incubator. The slides were fixed with MeOH, stained with Giemsa, and observed under a light microscope (EVOS M5000, Termo, USA) with digital image equipment. […] IC50 and CC50 values were calculated using a sigmoid dose–response curve in GraphPad Prism 6.0 software (GraphPad Software, San Diego, CA, USA). The assays were repeated at least twice, and the samples were tested in duplicate.

[3] = Cytotoxicity against mammalian cells (MTT); format: cell-based, murine; conditions: mouse, NCTC clone 929 fibroblast cells; NCTC clone 929 cells, 48 h, 200–1.56 μM, MTT
Procedure: (§1) Macrophages were collected from the peritoneal cavity of BALB/c mice by washing them with RPMI-1640 medium supplemented with 10% fetal calf serum and were maintained at 37 °C in a 5% CO2 humidified incubator. Trypomastigotes of T. cruzi (Y strain) were maintained in Rhesus monkey kidney cells (LLC-MK2, ATCC CCL 7) and cultivated in RPMI-1640 medium supplemented with 2% fetal calf serum at 37 °C in a 5% CO2 humidified incubator. Murine conjunctive cells (NCTC clone 929, ATCC) were maintained in RPMI-1640 supplemented with 10% FBS at 37 °C in a 5% CO2 humidified incubator.[20] […] The selectivity index (SI) was determined as CC50/IC50 against amastigotes. IC50 and CC50 values were calculated using a sigmoid dose–response curve in GraphPad Prism 6.0 software (GraphPad Software, San Diego, CA, USA). The assays were repeated at least twice, and the samples were tested in duplicate.

[4] = tested on: Fibroblast NCTC cells (clone 929); test: Cytotoxicity against mammalian cells (MTT); format: cell-based, murine; conditions: for SI (selectivity index): ratio between CC50 in NCTC cells and IC50 in intracellular amastigotes; for CC50 (μM) ± SD: NCTC clone 929 cells, 48 h, 200–1.56 μM, MTT
Procedure: as §1

T. cruzi amastigotes [5] = conditions: T. cruzi intracellular amastigotes; read-out: IC50 (μM) ± SD amastigote; cited from earlier work
[6] = tested on: Fibroblast NCTC cells (clone 929); conditions: cited from earlier work

SMILES	IC50 [1]	IC50 (T. cruzi amastigotes [2])	CC50 at 48 h [3]	SI (selectivity index) [4]	fold more potent than the natural product 1 against the amastigotes (T. cruzi amastigotes [2]; relative to compound 1, amastigote IC50)	IC50 (T. cruzi amastigotes [5])	CC50 ([6]; NCTC cells)	SI (selectivity index) ([6]; ratio between CC50 in NCTC cells and IC50 in intracellular amastigotes)	CC50 (μM) ± SD [4]
C=CCc1ccc(Oc2cc(CC=C)cc(OC)c2OCOC)c(OC)c1 [Compound 5]	6.5 ± 4.9 µM	24.4 ± 10.3 µM	> 200 µM	>8.2	–	–	–	–	–
C=CCc1ccc(Oc2cc(CC=C)cc(OC)c2OCc2ccc(OC)cc2)c(OC)c1 [Compound 6]	–	4 ± 1.4 µM	> 200 µM	>50	approximately 20 fold	–	–	–	–
CCCc1ccc(Oc2cc(CCC)cc(OC)c2OC)c(OC)c1 [Compound 9]	–	–	–	–	–	13.3 ± 1.2 µM	> 200 µM	>15.0	–
CCCc1ccc(Oc2cc(CCC)cc(OC)c2OCc2ccc(OC)cc2)c(OC)c1 [Compound 10]	–	5.5 ± 3.5 µM	> 200 µM	>36.4	–	–	–	–	–
C=CCc1cc(OC)c(OC)c(Oc2ccc(CCC)cc2OC)c1 [Compound 11]	21.9 ± 6.1 µM	11.7 ± 7 µM	> 200 µM	>17.1	–	–	–	–	–
C=CCc1cc(OC)c(OCc2ccc(OC)cc2)c(Oc2ccc(CCC)cc2OC)c1 [Compound 12]	–	8.6 ± 2.1 µM	> 200 µM	>23.3	–	–	–	–	–
C=CCc1cc(OC)c(O)c(Oc2ccc(CCC)cc2OC)c1 [Compound 13]	7.6 ± 1.9 µM	16.6 ± 1 µM	42 ± 3.8 µM	2.5	–	–	–	–	significant mammalian toxicity
C=CCc1ccc(Oc2cc(CC=C)cc(OC)c2OCc2ccc(OC)cc2)cc1 [Compound 14]	–	11 ± 2.3 µM	> 200 µM	>18.2	–	–	–	–	–
C=CCc1ccc(Oc2cc(CC=C)cc(OC)c2O)cc1 [Compound 15, 3-methylobovatol]	4.6 ± 3 µM	22.5 ± 18.8 µM	123 ± 9.4 µM	5.5	–	–	–	–	–
C=CCc1cc(OC)c(OC)c(Oc2ccccc2OC)c1 [Compound 16]	20.3 ± 0.4 µM	–	> 200 µM	–	–	–	–	–	–
C=CCc1cc(OC)c(OCc2ccc(OC)cc2)c(Oc2ccccc2OC)c1 [Compound 17]	–	–	> 200 µM	–	–	–	–	–	–
C=CCc1ccc(Oc2cc(CCC)cc(OC)c2OCc2ccc(OC)cc2)c(OC)c1 [Compound 18]	–	13.4 ± 5.4 µM	> 200 µM	>14.9	–	–	–	–	–
C=CCc1ccc(Oc2cc(CCC)cc(OC)c2O)c(OC)c1 [Compound 19]	4.6 ± 3.8 µM	10.5 ± 8.3 µM	14.2 ± 0.1 µM	1.3	–	–	–	–	significant mammalian toxicity
C=CCc1ccc(Oc2cccc(OC)c2OC)c(OC)c1 [Compound 20]	63.1 ± 6.2 µM	25.7 ± 12.2 µM	> 200 µM	>7.8	–	–	–	–	–
C=CCc1ccc(Oc2cccc(OC)c2OCc2ccc(OC)cc2)c(OC)c1 [Compound 21]	–	–	> 200 µM	–	–	–	–	–	–
C=CCOc1c(OC)cccc1Oc1ccc(CC=C)cc1OC [Compound 22]	–	–	> 200 µM	–	–	–	–	–	–
C=CCc1ccc(O)c(Oc2ccc(CC=C)cc2OC)c1 [Compound 23]	2.5 ± 1.3 µM	7.7 ± 1.3 µM	129 ± 5.2 µM	16.7	–	–	–	–	–
C=CCc1ccc(Oc2cc(CC=C)ccc2OCc2ccc(OC)cc2)c(OC)c1 [Compound 24]	–	11.6 ± 8.4 µM	> 200 µM	>17.2	–	–	–	–	–
C=CCc1cc(OC)cc(Oc2ccc(CC=C)cc2OC)c1 [Compound 25]	–	10.9 ± 6.5 µM	> 200 µM	>18.3	–	–	–	–	–
O=C(Cn1ccnc1[N+](=O)[O-])NCc1ccccc1 [benznidazole, reference compound]	17.7 ± 1.9 µM	5 ± 1.5 µM	191 ± 13.4 µM	38.1	–	–	–	–	–

Reference: paper PMC7670487 (ACS Infectious Diseases, 2020)
